Source: patent US4617269A, “Process for the preparation of fructosyl disaccharides” (priority 1983, dated 1986)
Like-named read-outs stand apart in the source and are kept apart here.

Key:
[1] = Sweetness relative to sucrose
[2] = test system: Dedonder's levan sucrase from B.subtilis BS5 (a clone from B.subtilis var. nigra); conditions: cited from earlier work

**Q.** With `OC[C@H]1O[C@H](O[C@]2(CO)O[C@H](CO)[C@@H](O)[C@@H]2O)[C@H](O)[C@@H](O)[C@H]1O` [Galactosucrose, β-D-fructofuranosyl (2→1)-D-galactopyranoside] as the molecule, how does the sweetness ([1]; only a trace of sweetness) read?
**A.** 10-15 % of sucrose

**Q.** With `C[C@H]1O[C@H](O[C@]2(CCl)O[C@H](CCl)[C@@H](O)[C@@H]2O)[C@H](O)[C@@H](O)[C@H]1Cl` [4,1',6'-trichloro-4,6,1',6'-tetradeoxygalactosucrose] as the molecule, how does the “sweetness, times as sweet as sucrose” value ([1]; 8% solution) read?
**A.** 400 times as sweet as sucrose

**Q.** Which “sweetness, times as sweet as sucrose” value ([1]; in a 2% solution) does the source give for `O[C@@H]1[C@@H](O)[C@@H](O[C@]2(CCl)O[C@H](CCl)[C@@H](O)[C@@H]2O)OC[C@@H]1Cl` [Example 8] here?
**A.** 25 times as sweet as sucrose

**Q.** For `OC[C@H]1O[C@@](CO)(O[C@H]2O[C@H](CO)[C@@H](O)[C@H](O)[C@H]2O)[C@@H](O)[C@@H]1O` [sucrose, β-D-fructofuranosyl α-D-glucopyranoside], which Km ([2]; Dedonder (loc.cit.) BS5 strain enzyme, read-out: Km (sucrose), quoted) is on record?
**A.** ~20 mM

**Q.** What about the Km ([2]; reported for Dedonder's levan sucrase, read-out: Km for sucrose) of the same molecule?
**A.** 20 mM
